One series concerns Adjuvans Arthritis. The series is described as follows: Adjuvant arthritis (method of Pearson). The format is in vivo, männliche Ratten eines Wistar-Lewis-Stammes. As to conditions: Rattus norvegicus; male Wistar-Lewis rats, oral daily from day 1 to day 5; reduction of paw volume increase vs control; ED50 read graphically from dose-response curve. An excerpt: 1. Adjuvans Arthritis Die Untersuchungen wurden nach der Methode von Pearson durchgeführt (Arthrit. Rheum. 2, 440 (1959)). […] Die zu […] Verbindungen wurden täglich vom 1. bis zum 5. Versuchstag oral appliziert. Tiere einer Kontrollgruppe erhielten nur das Lösungsmittel. Pro Dosierung und in der Kontrollgruppe wurden jeweils 8 […] unbehandelten Kontrollgruppe. Die ED50-Werte wurden graphisch aus […].

Series [1] is described as follows: Gastric ulcerogenic effect. To be noted: rat, stomach, po.
Text: Gastrale ulzerogene Wirkung
(§2) Die Untersuchungen erfolgten an jeweils 10 männlichen Sprague-Dawley Ratten im Körpergewicht von 200-300 g. 48 Stunden vor Applikation der zu vergleichenden Verbindungen bis zum Töten der Tiere wurde das Futter entzogen, bei freiem Zugang zum Trinkwasser. Die Ratten wurden 24 Stunden nach oraler Gabe getötet, der Magen entnommen, unter fließendem Wasser gereinigt und auf Schleimhautläsionen inspiziert. Als Ulzera galten alle makroskopisch sichtbaren Läsionen. Bestimmt wurde der Anteil der Tiere mit Ulzera pro dosi und die UD50 nach Lichtfield und Wilcoxon (J. Pharmacol. exp. Ther. 96, 99 (1949)).
In a further series the test system is gastrale Ulcera. The series is described as follows: Gastric ulcerogenic effect. As to conditions: ratio of UD50 (gastric ulcers) to ED50 (adjuvant arthritis), rat.
A short description of the next series: in vivo. As to conditions: rat, in vivo; Sprague-Dawley rats, 6 animals per dose; Litchfield-Wilcoxon; read-out: LD50 akute Toxizität. An excerpt: (§1) Die Bestimmung der akuten Toxizitäten erfolgten in Standardmethoden an Ratten des Sprague-Dawley-Stammes. Pro Dosierung wurden 6 Tiere verwendet. Die LD50-Werte wurden nach Lichtfield und Wilcoxon bestimmt. [drawing 8]

Series [2] deals with Ratten des Sprague-Dawley-Stammes. Put plainly: in vivo. As to conditions: ratio of LD50 (acute toxicity) to ED50 (adjuvant arthritis), rat.
Text: as §1

Text for gastrale Ulcera: Gastrale ulzerogene Wirkung
as §2

What is called ED50 is the midpoint of the dose-response relation. For the molecule `CC(Oc1cccc(-c2ccccc2)n1)C(=O)O` (racemic) [Beisp. 4, DL-2-(6-Phenylpyridin-2-oxy)-propansäure], in the series on Adjuvans Arthritis, the ED50 turned out to be 20 mg/kg. In addition, in series [1], the TD50 at 24 h was 175 mg/kg. The “TI(UD50/ED50) therapeutischer Index” value in the series with gastrale Ulcera is recorded as 9.

As usually defined, the LD50 is the dose at which mortality reaches 50%. On to `CC(CO)Oc1cccc(-c2ccccc2)n1` (racemic) [Beisp. 9, DL-2-(6-Phenylpyridin-2-oxy)-propanol], for which the ED50 with Adjuvans Arthritis was determined as 20 mg/kg. For the same molecule, in “in vivo”, the LD50 is 1000 mg/kg. Moreover, the “TI (LD50 /ED50) therapeutischer Index” value in series [2] turned out to be 50. The molecule also gave a TD50 at 24 h in series [1] of 220 mg/kg. Further, the “TI(UD50/ED50) therapeutischer Index” value in the series on gastrale Ulcera was 11.

Consider `CCOC(=O)[C@@H](C)Oc1cccc(-c2ccccc2)n1` [Beisp. 7, D(+)-2-(6-Phenylpyridin-2-oxy)-propansäureethylester], for which the ED50 in the series on Adjuvans Arthritis turned out to be 15 mg/kg. Besides, in series [1], the TD50 at 24 h came to 125 mg/kg. The “TI(UD50/ED50) therapeutischer Index” value with gastrale Ulcera came out at 8.

As to `COc1ccc2cc([C@H](C)C(=O)O)ccc2c1` [Naproxen, reference compound], the ED50 with Adjuvans Arthritis was 15 mg/kg.

With `CC1=C(CC(=O)O)c2cc(F)ccc2/C1=C\c1ccc([S+](C)[O-])cc1` (stereo not drawn) [Sulindac, reference compound], the ED50 with Adjuvans Arthritis was determined as 13 mg/kg. The TD50 at 24 h in series [1] was 26 mg/kg. Besides, the “TI(UD50/ED50) therapeutischer Index” value with gastrale Ulcera stood at 2.

These data come from patent EP0090353A1, “2-Pyridone derivatives, method for their preparation and pharmaceutical compositions containing them” (priority 1982, dated 1983).
